Experimental data taken from patent US20190136321A1, “USE OF TRANSLATIONAL PROFILING TO IDENTIFY TARGET MOLECULES FOR THERAPEUTIC TREATMENT” (The Regents of The University of California, priority 2013, published 2019).

Experiments:
LNCaP and A498 cells = test: Apoptosis analysis (Annexin V/PI); type: cell-based, human; conditions: 200 nM, 48 hours
Text: Appropriately treated LNCaP and A498 cells were labeled with Annexin V-FITC (BD Biosciences) and propidium iodide (Sigma) following the manufacturer's instructions. PI/Annexin data was acquired using a BD FACS Caliber (BD Biosciences) and analyzed with FlowJo (v.9.1).

GFP-labeled PC3 cells = test: Real-time imaging of cell migration; type: cell-based, human; conditions: starting at 6 hr of treatment
Procedure: Real-time imaging of GFP-labeled PC3 cells was performed in poly-D-lysine-coated chamber cover glass slides (Lab-Tek). PC3 GFP cells were plated and allowed to adhere for 24 hr. Wells were wounded with a P200 pipette tip. The chamber slides were imaged with an IX81 Olympus wide-field fluorescence microscope equipped with a CO2- and temperature-controlled chamber and time-lapse tracking system. Images from DIC and GFP channels were taken every 2 min and processed using ImageJ and analyzed for cell migration with Manual Tracking, using local maximum centering correction to maintain a centroid xy coordinate for each cell per frame over time. Tracking data was subsequently processed with the Chemotaxis and Migration tool from ibidi to create xy coordinate plots, velocity, and distance measurements.

Snail1, LEF1 and Twist1 = test: Snail1 immunocytochemistry, LEF1/Twist1 Western blot and qPCR (YB1 target genes); type: cell-based, human; conditions: PC3 cells, 200 nM
Procedure: Western blot analysis was performed as previously described (Hsieh et al., Cancer Cell 17:249-261 (2010)) with antibodies specific to phospho-AKT^S473 (Cell Signaling), AKT (Cell Signaling), phospho-p70S6K^T389 (Cell Signaling), phospho-rpS6^S240/244 (Cell Signaling), rpS6 (Cell Signaling), phospho-4EBP1^T37/46 (Cell Signaling), 4EBP1 (Cell Signaling), 4EBP2 (Cell Signaling), YB1 (Cell Signaling), CD44 (Cell Signaling), LEF1 (Cell Signaling), PTEN (Cell Signaling), eEF2 (Cell Signaling), GAPDH (Cell Signaling), vimentin (BD Biosciences), eIF4E (BD Biosciences), Flag (Sigma), β-actin (Sigma), MTA1 (Santa Cruz Biotechnology), Twist (Santa Cruz Biotechnology), rpL28 (Santa Cruz Biotechnology), HA (Covance) and rictor (Bethyl Laboratory).
RNA was isolated using the manufacturer's protocol for RNA extraction with TRIzol Reagent (Invitrogen) using the Pure Link RNA mini kit (Invitrogen). RNA was DNase-treated with Pure Link Dnase (Invitrogen). DNase-treated RNA was transcribed to cDNA with SuperScript III First-Strand Synthesis System for RT-PCR (Invitrogen), and 1 μl of cDNA was used to run a SYBR green detection qPCR assay (SYBR Green Supermix and MyiQ2, Biorad). […]
Appropriately transfected or treated PC3 cells were plated on a poly-L-lysine-coated chamber slide (Lab-Tek) and cultured for 48 hr. […] Image capture and quantification were completed as described below (see “Immunofluorescence”).

Pten^L/L mice = test: Pharmacological treatment of Pten^L/L mice (preclinical trial, prostate cancer); type: in vivo, mouse
Procedure: Pten^loxp/loxp and Pb-cre mice where obtained from Jackson Laboratories and Mouse Models of Human Cancers Consortium (MMHCC), respectively, and maintained in the C57BL/6 background. Mice were maintained under specific pathogen-free conditions, and experiments were performed in compliance with institutional guidelines as approved by the Institutional Animal Care and Use Committee of UCSF.
Weight measurements were taken every 3 days to monitor for toxicity. For the 28-day study, mice were imaged via […] at day 0 and day 28 in a 14-T GE MR scanner (GE Healthcare).
Whole mouse prostates were removed from wild-type and Pten^L/L mice, microdissected, and frozen in liquid nitrogen. Frozen tissues were subsequently manually disassociated using a biopulverizer (Biospec) and additionally processed for protein and mRNA analysis as described above.
Prostates and lymph nodes were dissected from mice within 2 hr of the indicated treatment and fixed in 10% formalin overnight at 4° C. Tissues were subsequently dehydrated in ethanol (Sigma) at room temperature, mounted into paraffin blocks, and sectioned at […] Specimens were de-paraffinized and rehydrated using CitriSolv (Fisher) followed by serial ethanol washes. […] Sections were washed in distilled water followed by TBS washes. The sections were then incubated in 5% goat serum, 1% BSA in TBS for 1 hr at room temperature. Various primary antibodies were used, including those specific for keratin 5 (Covance), cytokeratin 8 (Abcam and Covance), YB1 (Abcam), vimentin (Abcam), MTA1 (Cell signaling), CD44 (BD Pharmingen), and the androgen receptor (Epitomics), which were diluted 1:50-1:500 in blocking solution and incubated on sections overnight at 4° C. Specimens were then washed in TBS and incubated with the appropriate Alexa 488 and 594 labeled secondary (Invitrogen) at 1:500 for 2 hr at room temperature, with the exception of YB1 which was incubated with biotinylated anti-rabbit secondary (Vector) followed by incubation with Alexa 594 labeled Streptavidin (Invitrogen). A final set of washes in TBS was completed at room temperature followed by mounting with DAPI Hardset Mounting Medium (Vector Lab). A Zeiss Spinning Disc confocal (Zeiss, CSU-X1) was used to image the sections at 40×-100×. Individual prostate cells were quantified for mean fluorescence intensity (m.f.i.) using the Axiovision (Zeiss, Release 4.8) densitometric tool.
Mouse lymph nodes were processed as described above and stained for CK8 and androgen receptor. Lymph nodes were imaged using a Zeiss AX10 microscope. Metastases were identified and areas were measured using the Axiovision (Zeiss, Release 4.8) measurement tool.
Immunohistochemistry was performed as described above (see “Immunofluorescence”) with the exception that immediately after antigen […] and TBS washes, specimens were incubated in 3% hydrogen peroxide in TBS followed by TBS washes. The following primary antibodies were used: phospho-AKT^S473 (Cell Signaling), phospho-rpS6^S240/244 (Cell Signaling), phospho-4EBP1^T37/46 (Cell Signaling), phospho-histone H3 (Upstate), and cleaved caspase (Cell Signaling). This was followed by TBS washes and incubation with the appropriate biotinylated secondary antibody (Vector Lab) for 30 min at room temperature. An ABC-HRP Kit (Vector Lab) was used to amplify the signal, followed by a brief incubation in hydrogen peroxide. The protein of interest was detected using DAB (Sigma). Specimens were counterstained with haematoxylin (Thermo Scientific), dehydrated with Citrisolv (Fisher), and mounted with Cytoseal XYL (Vector Lab).
Paraffin-embedded prostate specimens were deparaffinized and rehydrated as described above (see “Immunofluorescence”), stained with haematoxylin (Thermo Scientific), and washed with water. This was followed by a brief incubation in differentiation RTU (VWR) and two washes with water followed by two 70% ethanol washes. […]

[1] = Pten^L/L mice, ATP site inhibitor of mTOR 1 mg/kg daily, RAD001 10 mg/kg daily

## CC(C)n1nc(-c2ccc3oc(N)nc3c2)c2c(N)ncnc21 [ATP site inhibitor of mTOR]
LNCaP and A498 cells
  programmed cell death in multiple cancer cell lines: induced
GFP-labeled PC3 cells
  cancer cell migration: inhibited
Snail1, LEF1 and Twist1
  protein levels but not mRNA levels of YB1 target genes (Snail1, LEF1, Twist1): decreases
Pten^L/L mice; Pten^L/L mice, 1 mg/kg daily, 28-day treatment, MRI
  prostate cancer volume: marked reduction
Pten^L/L mice; Pten^L/L mice, 1 mg/kg daily, 28 days
  decrease in prostatic intraepithelial neoplasia (PIN) lesions: 50%
Pten^L/L mice; Pten^L/L mice, 28 days, ATP site inhibitor of mTOR 1 mg/kg daily, RAD001 10 mg/kg daily
  4EBP1 and p70S6K1/2 phosphorylation: completely restored to wild-type levels
Pten^L/L mice; Pten^L/L mice, 60 days of treatment
  progression of invasive prostate cancer locally in the prostate gland: completely blocked
Pten^L/L mice; Pten^L/L mice, draining lymph nodes, 60 days of treatment
  total number and size of distant metastases: profoundly inhibited
Pten^L/L mice; [1]
  apoptosis (cleaved caspase 3): tenfold increase
  proliferation (phospho-histone H3): decreased
Pten^L/L mice; specific epithelial cell types within pre-invasive PIN lesions in Pten^L/L mice
  expression of YB1, vimentin, CD44, and MTA1 at the protein, but not transcript, level: marked decrease
